From ChEMBL document CHEMBL1132938, “Novel synthetic oleanane and ursane triterpenoids with various enone functionalities in ring A as inhibitors of nitric oxide production in mouse macrophages” (J Med Chem, 2000) come the findings set out here.

For the test, the species on record is Mus musculus. Kind of test: Percent inhibition of nitric oxide production induced by IFN-uM concentration. Also on record: concentration or dose not given beside the values. Type of test: functional.

As to `CC1(C)CCC2(C(=O)O)CC[C@]3(C)C(=CC[C@@H]4[C@@]5(C)CC[C@@H](Cl)C(C)(C)[C@@H]5CC[C@]43C)C2C1` (stereo partly drawn), the Inhibition (as a rule, how much of the control response was suppressed) is on record as 0%.
To `CC(=O)OC[C@]12CCC(C)(C)CC1C(O)[C@](C)([C@]1(C)CC[C@H]3C(C)(C)[C@@H](OC(C)=O)CC[C@]3(C)[C@H]1CCO)CC2` (stereo partly drawn) belongs 12%; to `CC(=O)OCC12CCC(C)(C)CC1[C@H]1[C@H](OC(C)=O)C[C@@H]3[C@@]4(C)CC[C@H](OC(C)=O)C(C)(C)[C@@H]4CC[C@@]3(C)[C@]1(C)CC2` (stereo partly drawn), 0%; to `CC1(C)CC[C@]2(C(=O)O)CC[C@@](C)([C@]3(C)CC[C@H]4C(C)(C)C(=O)CC[C@]4(C)[C@H]3CC(=O)O)C(=O)C2C1` (stereo partly drawn), 28%.
To `CC(=O)OCC12CCC(C)(C)CC1C1=CC[C@@H]3[C@@]4(C)CC[C@H](OC(C)=O)C(C)(C)[C@@H]4CC[C@@]3(C)[C@]1(C)CC2` (stereo partly drawn) belongs 4%; to `COC(=O)C12CCC(C)(C)CC1C1=CC[C@@H]3[C@@]4(C)CC[C@H](OC(C)=O)C(C)(C)[C@@H]4CC[C@@]3(C)[C@]1(C)CC2` (stereo partly drawn), 10%; to `CC1(C)CCC2(CO)CC[C@]3(C)C(=CC[C@@H]4[C@@]5(C)CC[C@H](O)C(C)(C)[C@@H]5CC[C@]43C)C2C1` (stereo partly drawn), 0%.
On to `COC(=O)C12CCC(C)(C)CC1C1=CC[C@@H]3[C@@]4(C)CCC(=O)C(C)(C)[C@@H]4CC[C@@]3(C)[C@]1(C)CC2` (stereo partly drawn), for which the Inhibition turned out to be 24%.
Then `CC1(C)CCC2(CO)CC[C@]3(C)[C@@H](C2C1)[C@H](O)C[C@@H]1[C@@]2(C)CC[C@H](O)C(C)(C)[C@@H]2CC[C@]13C` (stereo partly drawn), with 20%; and `CC1(C)CCC2(CO)CC[C@]3(C)[C@@H](C2C1)[C@@H](O)C[C@@H]1[C@@]2(C)CC[C@H](O)C(C)(C)[C@@H]2CC[C@]13C` (stereo partly drawn), with 48%.
Compound `C=C(C)[C@@H]1CC[C@]2(C)[C@H](CC=C3C4[C@@H](C)[C@H](C)CC[C@]4(C(=O)O)CC[C@]32C)[C@@]1(C)CCC#N` (stereo partly drawn) gave an Inhibition of 39%.
Then `COC(=O)C12CC[C@@H](C)[C@H](C)C1C1=CC[C@@H]3[C@@]4(C)CCC(=O)C(C)(C)[C@@H]4CC[C@@]3(C)[C@]1(C)CC2` (stereo partly drawn), with 16%; and `COC(=O)C12CCC(C)(C)CC1C1=CC[C@@H]3[C@@]4(C)CCC(=O)NC(C)(C)[C@@H]4CC[C@@]3(C)[C@]1(C)CC2` (stereo partly drawn), with 0%.
Then `COC(=O)C12CCC(C)(C)CC1[C@H]1C(=O)C[C@@H]3[C@@]4(C)CCC(=O)C(C)(C)[C@@H]4CC[C@@]3(C)[C@]1(C)CC2` (stereo partly drawn), with 3%.
Take `C[C@@H]1CC[C@]2(C(=O)O)CC[C@]3(C)C(=CC[C@@H]4[C@@]5(C)C[C@@H](Cl)C(=O)C(C)(C)[C@@H]5CC[C@]43C)C2[C@H]1C` (stereo partly drawn): the Inhibition worked out at 55%.
To `C[C@@H]1CCC2(C(=O)O)CC[C@]3(C)C(=CC[C@@H]4[C@@]5(C)CC[C@@H](O)C(C)(C)[C@@H]5CC[C@]43C)C2[C@H]1C` (stereo partly drawn) belongs 48%; to `CC1(C)CC[C@@]23CC[C@]4(C)[C@](OC2=O)(C(=O)C[C@@H]2[C@@]5(C)CCC(=O)C(C)(C)[C@@H]5CC[C@]24C)C3C1` (stereo partly drawn), 0%; to `COC(=O)C12CCC(C)(C)CC1C1=CC[C@@H]3[C@@]4(C)CC=CC(C)(C)[C@@H]4CC[C@@]3(C)[C@]1(C)CC2` (stereo partly drawn), 3%.
Then `CC1(C)CC[C@@]23CC[C@]4(C)[C@@](OC2O)(C3C1)[C@@H](O)C[C@@H]1[C@@]2(C)CC[C@H](O)C(C)(C)[C@@H]2CC[C@]14C` (stereo partly drawn), with 21%; and `COC(=O)C12CCC(C)(C)CC1[C@H]1C(=O)C[C@@H]3[C@@]4(C)CC[C@H](O)C(C)(C)[C@@H]4CC[C@@]3(C)[C@]1(C)CC2` (stereo partly drawn), with 0%; and `C[C@@H]1CCC2(C(=O)O)CC[C@]3(C)C(=CC[C@@H]4[C@@]5(C)CCC(=O)C(C)(C)[C@@H]5CC[C@]43C)C2[C@H]1C` (stereo partly drawn), with 22%.
Compound `CC1(C)CC[C@]2(C(=O)O)CC[C@]3(C)C(=CC[C@@H]4[C@@]5(C)C=CC(=O)C(C)(C)[C@@H]5CC[C@]43C)C2C1` (stereo partly drawn) had an Inhibition of 85%.
In turn, `CC(=O)OC[C@]12CCC(C)(C)CC1C(=O)[C@](C)([C@]1(C)CC[C@H]3C(C)(C)[C@@H](OC(C)=O)CC[C@]3(C)[C@H]1CC(=O)O)CC2` (stereo partly drawn) showed an Inhibition of 52%.
Then `CC1(C)CC[C@@]23CC[C@]4(C)[C@@](OC2=O)(C3C1)[C@@H](Br)C[C@@H]1[C@@]2(C)CCC(=O)C(C)(C)[C@@H]2CC[C@]14C` (stereo partly drawn), with 4%; and `CC(=O)OCC12CCC(C)(C)CC1[C@H]1[C@@H](O)C[C@@H]3[C@@]4(C)CC[C@H](OC(C)=O)C(C)(C)[C@@H]4CC[C@@]3(C)[C@]1(C)CC2` (stereo partly drawn), with 0%.
The compound `C=C(C)[C@@H]1CC[C@]2(C)[C@H](CC=C3C4CC(C)(C)CC[C@]4(C(=O)O)CC[C@]32C)[C@@]1(C)CCC=O` (stereo partly drawn) yielded an Inhibition of 22%.
To `C=C(C)[C@@H]1CC[C@]2(C)[C@H](CC=C3C4CC(C)(C)CC[C@]4(C(=O)O)CC[C@]32C)[C@@]1(C)CCC#N` (stereo partly drawn) belongs 33%; to `C=C(C)[C@@H]1CC[C@]2(C)[C@H](CC=C3C4[C@@H](C)[C@H](C)CC[C@]4(C(=O)O)CC[C@]32C)[C@@]1(C)CCC(=O)O` (stereo partly drawn), 10%.
To `C=C(C)[C@@H]1CC[C@]2(C)[C@H](CC=C3C4[C@@H](C)[C@H](C)CC[C@]4(C(=O)O)CC[C@]32C)[C@@]1(C)CCC=O` (stereo partly drawn) belongs 55%.
Then `CC1(C)CCC2(C(=O)O)CC[C@]3(C)C(=CC[C@@H]4[C@@]5(C)CCC(=O)NC(C)(C)[C@@H]5CC[C@]43C)C2C1` (stereo partly drawn), with 51%.
On to `COC(=O)C12CCC(C)(C)CC1[C@H]1C(=O)C[C@@H]3[C@@]4(C)CC[C@H](OC(C)=O)C(C)(C)[C@@H]4CC[C@@]3(C)[C@]1(C)CC2` (stereo partly drawn), for which the Inhibition turned out to be 0%.
As to `COC(=O)C12CC[C@@H](C)[C@H](C)C1C1=CC[C@@H]3[C@@]4(C)CC[C@H](O)C(C)(C)[C@@H]4CC[C@@]3(C)[C@]1(C)CC2` (stereo partly drawn), the Inhibition amounted to 0%.
Then `CC1(C)CCC2(C=O)CC[C@]3(C)C(=CC[C@@H]4[C@@]5(C)CCC(=O)C(C)(C)[C@@H]5CC[C@]43C)C2C1` (stereo partly drawn), with 11%.
To `CC1(C)CCC2(CO)CC[C@]3(C)[C@@](O)(C2C1)[C@@H](O)C[C@@H]1[C@@]2(C)CC[C@H](O)C(C)(C)[C@@H]2CC[C@]13C` (stereo partly drawn) belongs 22%; to `CC(=O)O[C@H]1CC[C@]2(C)[C@H]3CC=C4C5[C@@H](C)[C@H](C)CCC5(C(=O)O)CC[C@@]4(C)[C@]3(C)CC[C@H]2C1(C)C` (stereo partly drawn), 0%.
With `C[C@@H]1CCC2(C=O)CC[C@]3(C)C(=CC[C@@H]4[C@@]5(C)CCC(=O)C(C)(C)[C@@H]5CC[C@]43C)C2[C@H]1C` (stereo partly drawn), the Inhibition came out at 21%.
Then `CC1(C)CCC2(C(=O)O)CC[C@]3(C)C(=CC[C@@H]4[C@@]5(C)CC=CC(C)(C)[C@@H]5CC[C@]43C)C2C1` (stereo partly drawn), with 0%.
Compound `CC(C)C1=C2CC[C@]3(C)[C@H](CC=C4C5CC(C)(C)CCC5(C(=O)O)CC[C@]43C)[C@@]2(C)CC1` (stereo partly drawn) registered an Inhibition of 0%.
Then `CC(=O)OCC12CC[C@@H](C)[C@H](C)C1C1=CC[C@@H]3[C@@]4(C)CC[C@H](OC(C)=O)C(C)(C)[C@@H]4CC[C@@]3(C)[C@]1(C)CC2` (stereo partly drawn), with 0%; and `COC(=O)C12CCC(C)(C)CC1[C@H]1[C@H](O)C[C@@H]3[C@@]4(C)CC[C@H](OC(C)=O)C(C)(C)[C@@H]4CC[C@@]3(C)[C@]1(C)CC2` (stereo partly drawn), with 0%; and `CC1(C)CCC2(C(=O)O)CC[C@]3(C)C(=C2C1)C=C[C@@H]1[C@@]2(C)CCC(=O)C(C)(C)[C@@H]2CC[C@]13C` (stereo partly drawn), with 47%.
`COC(=O)C12CCC(C)(C)CC1[C@]13O[C@H]1C[C@@H]1[C@@]4(C)CC[C@H](OC(C)=O)C(C)(C)[C@@H]4CC[C@@]1(C)[C@]3(C)CC2` (stereo partly drawn): the Inhibition is listed as 0%.
Then `C=C(C)[C@@H]1CC[C@]2(C)[C@H](CC=C3C4CC(C)(C)CC[C@]4(C(=O)OC)CC[C@]32C)[C@@]1(C)CCC#N` (stereo partly drawn), with 21%; and `COC(=O)C12CCC(C)(C)CC1[C@H]1[C@@H](O)C[C@@H]3[C@@]4(C)CC[C@H](OC(C)=O)C(C)(C)[C@@H]4CC[C@@]3(C)[C@]1(C)CC2` (stereo partly drawn), with 0%.
Turning to `COC(=O)C12CC[C@@H](C)[C@H](C)C1C1=CC[C@@H]3[C@@]4(C)CC[C@H](OC(C)=O)C(C)(C)[C@@H]4CC[C@@]3(C)[C@]1(C)CC2` (stereo partly drawn), the Inhibition amounted to 15%.
To `COC(=O)C12CCC(C)(C)CC1C1=CC[C@@H]3[C@@]4(C)CC[C@@H](Cl)C(C)(C)[C@@H]4CC[C@@]3(C)[C@]1(C)CC2` (stereo partly drawn) belongs 2%; to `CC1(C)CCC2(C(=O)O)CC[C@]3(C)[C@H](C(=O)C[C@@H]4[C@@]5(C)CCC(=O)C(C)(C)[C@@H]5CC[C@]43C)C2C1` (stereo partly drawn), 37%.
Take `COC(=O)C12CC[C@@H](C)[C@H](C)C1C1=CC[C@@H]3[C@@]4(C)C=CC(=O)C(C)(C)[C@@H]4CC[C@@]3(C)[C@]1(C)CC2` (stereo partly drawn): the Inhibition turned out to be 0%.
Then `CC1(C)CCC2(C(=O)O)CC[C@]3(C)C(=CC[C@@H]4[C@@]5(C)CC[C@@H](O)C(C)(C)[C@@H]5CC[C@]43C)C2C1` (stereo partly drawn), with 18%.
To `CC1(C)CCC2(C=O)CC[C@]3(C)[C@H](C(=O)C[C@@H]4[C@@]5(C)CCC(=O)C(C)(C)[C@@H]5CC[C@]43C)C2C1` (stereo partly drawn) belongs 38%; to `C[C@@H]1CCC2(CO)CC[C@]3(C)C(=CC[C@@H]4[C@@]5(C)CC[C@H](O)C(C)(C)[C@@H]5CC[C@]43C)C2[C@H]1C` (stereo partly drawn), 8%; to `CC(=O)O[C@H]1CC[C@]2(C)[C@H]3CC=C4[C@@H]5CC(C)(C)CC[C@]5(C(=O)O)CC[C@@]4(C)[C@]3(C)CC[C@H]2C1(C)C` [ACETYL OLEANOLIC ACID], 0%.
To `C[C@]12CCC(=O)C=C1CC[C@@H]1[C@@H]2[C@@H](O)C[C@@]2(C)[C@H]1CC[C@]2(O)C(=O)CO` [HYDROCORTISONE] belongs 80%.
